Measurements as given in patent US9540702B2, “Stabilization of enzymes with stable coenzymes” (Roche Diabetes Care, Inc., priority 2009, dated 2017).

Key:
[1] = Residual content of coenzyme in glucose detection reagent after storage at 32° C. and 85% relative air humidity; assay type: physicochemical; conditions: 24 weeks storage at 32° C. and 85% relative air humidity
Protocol: (§1) carbaNAD (FIG. 1A) or NAD were added to the glucose-specific GlucDH. These formulations were each applied to Pokalon foils (Lonza) and, after drying, stored under warm and humid conditions (32° C., 85% relative air humidity). Subsequently, the reaction kinetics and the function curve were determined at regular intervals. In parallel at each of the measurement times a cNAD/NAD analysis and a determination of the residual activity of the enzyme were carried out.
According to this the residual content of cNAD in a glucose detection reagent is still about 80% of the initial value after 24 weeks storage (at 32° C. and 85% relative air humidity), whereas the content of NAD in a glucose detection reagent stabilized with NAD is already reduced to about 35% of the initial value after 5 weeks and, by extrapolation, is reduced to zero after about 17 weeks.

[2] = target: glucose dehydrogenase (wild-type) (Bacillus subtilis, UniProt P12310); experiment: DSC of coenzyme binding; conditions: 3.8 mM ligand; 0.1 M Tris buffer, pH 8.5
[3] = target: glucose dehydrogenase (GlucDH) (Bacillus subtilis, UniProt P12310); experiment: Reaction kinetics, function curve and dry blank value of GlucDH/coenzyme formulations after warm, humid storage; assay type: biochemical
Protocol: as §1
However, a significant difference in the kinetics curves can be seen after 5 weeks.
There is also a considerable difference in the blank values (dry blank value before application of a blood sample) as shown in FIG. 3.
The different stability of glucose dehydrogenase in the presence of NAD or cNAD is also evident from a comparison of FIGS. 4 and 5. […] In this connection it is clear that the function of the enzyme is only slightly changed at high glucose concentrations over the entire period and approximately corresponds after 24 weeks to the value obtained after 5 weeks.

[4] = target: GlucDH_E96G_E170K (GlucDH-mut1) (Bacillus subtilis, UniProt P12310, A229V/A236S/E170K/E96G/Q252K); experiment: Residual activity of GlucDH mutant 1 after storage with coenzyme; assay type: biochemical; conditions: 24 weeks at 32° C. and 85% relative air humidity
Protocol: as §1
(§2) If a mutant is used instead of the wild-type enzyme (from Bacillus subtilis), it is possible to further increase the residual activity of GlucDH. After 24 weeks storage at 32° C. and 85% relative air humidity in the presence of cNAD, the residual activity of a mutant GlucDH_E96G_E170K with the amino acid substitutions glutamic acid→glycine at position 96 and glutamic acid→lysine at position 170 (GlucDH-mut1) of the wild-type enzyme is about 70%, whereas the residual activity of a mutant GlucDH_E170K_K252L with the amino acid substitutions glutamic acid→lysine at position 170 and lysine→leucine at position 252 (GlucDH-mut2) is about 50% (FIG. 8).

[5] = target: GlucDH_E170K_K252L (GlucDH-mut2) (Bacillus subtilis, UniProt P12310, A229V/A236S/E170K/Q252L); experiment: Residual activity of GlucDH mutant 2 after storage with coenzyme; assay type: biochemical; conditions: 24 weeks at 32° C. and 85% relative air humidity
Protocol: as §1, §2

[6] = target: Glucose dehydrogenase mutant2 (Bacillus subtilis, UniProt P12310, A229V/A236S/E170K/Q252L); experiment: Enzyme activity in test strips stored up to 18 weeks (Table 6); assay type: biochemical
Protocol: In order to evaluate the stabilization of glucose dehydrogenase and diaphorase by carbaNAD, a number of test strips were prepared in analogy to Example 5.
The test strips were stored over a period of 18 weeks at temperatures of 5° C. (KS, refrigerator), 25° C. (RT), 30° C. (GT), 35° C. (DT) and 45° C. (HT), and the enzyme activity in the test strips was determined at the start of storage (0 weeks), after 6 weeks, after 9 weeks, after 12 weeks and after 18 weeks. The results are shown in Table 6 (glucose dehydrogenase) and in Table 7 (diaphorase).

[7] = target: L lactate dehydrogenase (from rabbit) (Oryctolagus cuniculus, UniProt P13491); experiment: DSC of coenzyme binding; conditions: 3.8 mM ligand; 0.1 M Tris buffer, pH 8.5
[8] = target: T1, diaphorase (from porcine heart) (Sus scrofa, UniProt P09623); experiment: Diaphorase activity in liquid reagent for lactate dehydrogenase stored at 25° C.; assay type: biochemical; conditions: liquid reagent stored at 25° C.; 2 mM carbaNAD or 0.2 mM NAD; various storage times
T1 construct: 3 U/ml diaphorase (from porcine heart); from tissue; host or cells: porcine heart
T1 sequence (P09623 36-509): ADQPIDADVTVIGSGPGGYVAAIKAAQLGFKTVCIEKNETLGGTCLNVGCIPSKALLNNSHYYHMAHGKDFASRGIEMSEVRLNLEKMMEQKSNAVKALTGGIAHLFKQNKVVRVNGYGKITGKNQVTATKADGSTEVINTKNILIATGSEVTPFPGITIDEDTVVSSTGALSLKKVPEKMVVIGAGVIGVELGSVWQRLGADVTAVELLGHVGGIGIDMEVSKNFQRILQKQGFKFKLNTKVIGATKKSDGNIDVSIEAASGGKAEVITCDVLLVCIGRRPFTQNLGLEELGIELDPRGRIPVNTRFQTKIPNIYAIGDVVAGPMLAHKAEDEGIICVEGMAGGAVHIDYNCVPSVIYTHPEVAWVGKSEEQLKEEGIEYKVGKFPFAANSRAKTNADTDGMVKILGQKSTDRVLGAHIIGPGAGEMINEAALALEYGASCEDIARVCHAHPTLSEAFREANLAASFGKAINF
Protocol: A liquid reagent which, among others, contained diaphorase, carbaNAD, a tetrazolium salt and lactate was used to determine the activity of lactate dehydrogenase. The detection reagent which was stored in solution at 25° C. contained the following ingredients:
3 U/ml diaphorase (from porcine heart)
2 mM carbaNAD or 0.2 mM NAD
2 mM tetrazolium salt WST-3
0.1 M tricine/HCl, pH 8.8

NC(=O)c1ccc[n+]([C@@H]2C[C@H](COP(=O)([O-])OP(=O)(O)OC[C@H]3O[C@@H](n4cnc5c(N)ncnc54)[C@H](O)[C@@H]3O)[C@@H](O)[C@H]2O)c1 [carbaNAD]
residual content of coenzyme in glucose detection reagent [1]: about 80 % of the initial value | TM [2]: 58.5 °C | ΔHcal [2]: 84 kcal/mol | function curve of GlucDH ([3]; after 5 weeks at 32° C. and 85% air humidity): still lies within the set of curves of the previous measurements | kinetics curves of GlucDH ([3]; after 5 weeks at 32° C. and 85% relative air humidity): remains virtually unchanged | dry blank value before application of a blood sample ([3]; up to 5 weeks at 32° C. and 85% air humidity): does not occur | residual activity of GlucDH-mut1 [4]: about 70% | residual activity of GlucDH-mut2 [5]: about 50% | Enzyme activity, glucose dehydrogenase ([6]; 0 weeks (start of storage)): 19.8 U/cm^2 | Enzyme activity, glucose dehydrogenase ([6]; DT (35° C.), 6 weeks): 19.8 U/cm^2 | Enzyme activity, glucose dehydrogenase ([6]; DT (35° C.), 9 weeks): 20.2 U/cm^2 | Enzyme activity, glucose dehydrogenase ([6]; DT (35° C.), 12 weeks): 17.2 U/cm^2 | Enzyme activity, glucose dehydrogenase ([6]; DT (35° C.), 18 weeks): 16.9 U/cm^2 | Enzyme activity, glucose dehydrogenase ([6]; GT (30° C.), 12 weeks): 17.6 U/cm^2 | Enzyme activity, glucose dehydrogenase ([6]; GT (30° C.), 18 weeks): 16.8 U/cm^2 | Enzyme activity, glucose dehydrogenase ([6]; HT (45° C.), 6 weeks): 19.0 U/cm^2 | Enzyme activity, glucose dehydrogenase ([6]; HT (45° C.), 9 weeks): 18.8 U/cm^2 | Enzyme activity, glucose dehydrogenase ([6]; KS (5° C.), 6 weeks): 20.4 U/cm^2 | Enzyme activity, glucose dehydrogenase ([6]; KS (5° C.), 9 weeks): 21.2 U/cm^2 | Enzyme activity, glucose dehydrogenase ([6]; KS (5° C.), 12 weeks): 18.5 U/cm^2 | Enzyme activity, glucose dehydrogenase ([6]; KS (5° C.), 18 weeks): 18.8 U/cm^2 | Enzyme activity, glucose dehydrogenase ([6]; RT (25° C.), 6 weeks): 20.7 U/cm^2 | Enzyme activity, glucose dehydrogenase ([6]; RT (25° C.), 9 weeks): 21.5 U/cm^2 | Enzyme activity, glucose dehydrogenase ([6]; RT (25° C.), 12 weeks): 18.0 U/cm^2 | Enzyme activity, glucose dehydrogenase ([6]; RT (25° C.), 18 weeks): 17.7 U/cm^2 | TM [7]: 60.2 °C | ΔHcal [7]: 66 kcal/mol | residual activity of diaphorase compared to formulation containing NAD [8]: considerably increased residual activity
